What was measured:
S1P-1 receptor [1] = molecular target: T1, S1P-1 receptor (Homo sapiens, UniProt P21453); assay: [33P]sphingosine 1-phosphate binding assay, membranes of transfected HEK 293 T cells; details: for IC50: binding, 2.5 pM [33P]S1P, 60 minutes, room temperature; for IC50/IC50 (S1P-3/S1P-1): selectivity for S1P-1 over S1P-3
T1 construct: expressed in transfected cells; host or cells: HEK 293 T cells (crude membranes)
Method: (§1) The IC50 of a compound is determined using the [^33P]sphingosine 1-phosphate binding assay, as described in Davis, M. D. et al., Sphingosine 1-Phosphate Analogs as Receptor Antagonists. J. Biol. Chem. (2005) 280:9833-9841, the entire contents of which are incorporated herein by this reference.
(§2) The ability of several of the compounds described herein to bind to the S1P-1 or S1P-3 receptor was tested as follows.
(§3) For the membrane preparation, plasmid DNA was transfected into HEK 293 T cells using the FuGENE 6 transfection protocol Briefly, subconfluent monolayers of HEK 293 T cells were transfected with the DNA mixture containing FuGENE 6 (using a 1:3 ratio). The dishes containing the cells were then placed in a tissue culture incubator (5% CO2, 37° C.). The cells were harvested 48 hours after addition of the DNA by scraping in HME buffer (in mM: 20 HEPES, 5 MgCl2, 1 EDTA, pH 7.4, 1 mM PMSF) containing 10% sucrose on ice, and disrupted using aDounce homogenizer. After centrifugation at 800×g, the supernatant was diluted with HME without sucrose and centrifuged at 17,000×g for 1 hour. This crude membrane pellet was resuspended in HME with sucrose, aliquoted, and snap-frozen by immersion in liquid nitrogen. The membranes were stored at −70° C. Protein concentration was determined spectroscopically by Bradford protein assay.
(§4) For the binding assay, [^33P]sphingosine 1-phosphate (obtained from American Radiolabeled Chemicals, Inc) was added to membranes in 200 μL in 96-well plates with assay concentrations of 2.5 pM [^33P]sphingosine 1-phosphate, 4 mg/mL BSA, 50 mM HEPES, pH 7.5, 100 mM NaCl, 5 mM MgCl2, and 5 μg of protein. Binding was performed for 60 minutes at room temperature with gentle mixing and terminated by collecting the membranes onto GF/B filter plates. After drying the filter plates for 10 minutes, 50 μL of Microscint 40 was added to each well, and filter-bound radionuclide was measured on a Packard Top Count. Nonspecific binding was defined as the amount of radioactivity remaining in the presence of excess of unlabeled S1P.

S1P-3 receptor = molecular target: T2, S1P-3 receptor (Homo sapiens, UniProt Q99500); assay: as above; details: 2.5 pM [33P]S1P, 60 minutes, room temperature
T2 construct: expressed in transfected cells; host or cells: HEK 293 T cells (crude membranes)
Method: as §1, §2, §3, §4

S1P-1 receptor [2] = molecular target: T1, S1P-1 receptor; assay: 35S-GTPγS binding assay (EC50, agonism); type: biochemical; details: 35S-GTPγS binding assay as described in WO 03/061567
Method: The terms “agonist” or “S1P-1 receptor agonist” as used herein include the compounds described herein which bind to and/or agonize the S1P-1 receptor. The EC50 of a compound is determined using the ^35S-GTPγS binding assay, as described in WO 03/061567, the entire contents of which are incorporated herein by reference.

T2 sequence (Q99500 whole entry): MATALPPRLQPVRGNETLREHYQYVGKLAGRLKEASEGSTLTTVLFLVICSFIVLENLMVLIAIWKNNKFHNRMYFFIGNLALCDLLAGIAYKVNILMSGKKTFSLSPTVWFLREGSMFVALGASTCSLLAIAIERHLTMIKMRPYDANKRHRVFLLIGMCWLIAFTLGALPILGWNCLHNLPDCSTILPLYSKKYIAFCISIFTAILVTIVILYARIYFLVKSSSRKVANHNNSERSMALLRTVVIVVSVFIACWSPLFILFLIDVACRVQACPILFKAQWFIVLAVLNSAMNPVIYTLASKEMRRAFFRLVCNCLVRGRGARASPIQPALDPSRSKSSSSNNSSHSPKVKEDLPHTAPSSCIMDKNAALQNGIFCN
T1 sequence (P21453 whole entry): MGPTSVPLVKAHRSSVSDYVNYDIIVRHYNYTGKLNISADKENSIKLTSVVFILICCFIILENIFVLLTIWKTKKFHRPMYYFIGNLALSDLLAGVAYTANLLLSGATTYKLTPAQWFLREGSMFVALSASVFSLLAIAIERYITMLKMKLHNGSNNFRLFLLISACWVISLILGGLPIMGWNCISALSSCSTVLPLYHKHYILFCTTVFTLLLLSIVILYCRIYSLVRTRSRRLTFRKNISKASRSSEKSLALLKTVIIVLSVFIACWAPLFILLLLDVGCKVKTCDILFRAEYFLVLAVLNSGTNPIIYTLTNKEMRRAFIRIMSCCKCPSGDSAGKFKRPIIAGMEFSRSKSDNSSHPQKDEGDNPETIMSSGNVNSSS

SMILES | IC50 (S1P-1 receptor [1]) | IC50/IC50 (S1P-3/S1P-1) (S1P-1 receptor [1]) | IC50 (S1P-3 receptor) | EC50 (S1P-1 receptor [2])
C[C@](N)(COP(=O)(O)O)c1ncc(-c2ccc(Sc3cccc(OCc4ccccc4)c3)c(C(F)(F)F)c2)[nH]1 | 0.001 to 100 nM | +++ (great receptor selectivity (>1,000 fold)) | 1000 to 10000 nM | –
C[C@](N)(COP(=O)(O)O)C(=O)Nc1ccc(Sc2cccc(OCc3ccccc3)c2)cc1Cl [compound 7a] | – | – | – | 6.9 nM
C[C@](N)(COP(=O)(O)O)c1nnc(-c2ccc(Sc3cccc(OCc4ccccc4)c3)cc2Cl)s1 | 0.001 to 100 nM | ++ (good receptor selectivity (>100-1,000 fold)) | 100 to 1000 nM | –
C[C@](N)(COP(=O)(O)O)c1nnc(-c2ccc(Sc3cccc(O)c3)cc2Cl)s1 | 100 to 1000 nM | – | > 10000 nM | –
C[C@](N)(COP(=O)(O)O)c1nnc(-c2ccc(Sc3cccc(OCc4ccccc4)c3)c(C(F)(F)F)c2)s1 | 0.001 to 100 nM | – | > 10000 nM | –
C[C@](N)(COP(=O)(O)O)c1ncc(-c2ccc(Sc3cccc(OCc4ccccc4)c3)cc2Cl)[nH]1 | 0.001 to 100 nM | +++ (great receptor selectivity (>1,000 fold)) | 100 to 1000 nM | –

— US20090318389A1, “AGONISTS OF THE SPHINGOSINE-1 PHOSPHATE RECEPTOR” (PRAECIS PHARMACEUTICALS INCORPORATED, priority 2006, published 2009)
